The text below walks through data of ChEMBL document CHEMBL5727333, “3-amino-1,5,6,7-tetrahydro-4H-indol-4-ones” (2019).

For orientation: IC50 means the point on the concentration scale where inhibition reaches its midpoint.

In the test the target is Mitotic checkpoint serine/threonine-protein kinase BUB1 (Homo sapiens, UniProt O43683). In words: Kinase Assay: In a typical assay 11 different concentrations of each compound (0.1 nM, 0.33 nM, 1.1 nM, 3.8 nM, 13 nM, 44 nM, 0.15 μM, 0.51 μM, 1.7 μM, 5.9 μM and 20 μM) were tested in duplicate within the same microtiter plate. To this end, 100-fold concentrated compound solutions (in DMSO) were previously prepared by serial dilution (1:3.4) of 2 mM stocks in a clear low volume 384-well source microtiter plate (Greiner Bio-One, Frickenhausen, Germany), from which 50 nl of compounds were transferred into a black low volume test microtiter plate from the same supplier. […] The resulting mixture (5 μL final volume) was incubated at 22° C. during 60 min., and the reaction was stopped by the addition of 5 μL of an aqueous EDTA-solution (50 mM EDTA, in 100 mM HEPES pH 7.5 and 0.2% (w/v) bovine serum albumin) which also contained the TR-FRET detection reagents (0.2 μM streptavidin-XL665 [Cisbio Bioassays, Codolet, France] and 1 nM anti-phosho-Serine antibody [Merck Millipore, cat. #35-002] and 0.4 nM LANCE EU-W1024 labeled anti-mouse IgG antibody [Perkin-Elmer, product no. AD0077, alternatively a Terbium-cryptate-labeled anti-mouse IgG antibody from Cisbio Bioassays can be used]). The stopped reaction mixture was further incubated 1 h at 22° C. in order to allow the formation of complexes between peptides and detection reagents. For orientation: In TR-FRET formats the signal depends on donor and acceptor labels being close together.
Sequence of Mitotic checkpoint serine/threonine-protein kinase BUB1 (O43683 whole entry): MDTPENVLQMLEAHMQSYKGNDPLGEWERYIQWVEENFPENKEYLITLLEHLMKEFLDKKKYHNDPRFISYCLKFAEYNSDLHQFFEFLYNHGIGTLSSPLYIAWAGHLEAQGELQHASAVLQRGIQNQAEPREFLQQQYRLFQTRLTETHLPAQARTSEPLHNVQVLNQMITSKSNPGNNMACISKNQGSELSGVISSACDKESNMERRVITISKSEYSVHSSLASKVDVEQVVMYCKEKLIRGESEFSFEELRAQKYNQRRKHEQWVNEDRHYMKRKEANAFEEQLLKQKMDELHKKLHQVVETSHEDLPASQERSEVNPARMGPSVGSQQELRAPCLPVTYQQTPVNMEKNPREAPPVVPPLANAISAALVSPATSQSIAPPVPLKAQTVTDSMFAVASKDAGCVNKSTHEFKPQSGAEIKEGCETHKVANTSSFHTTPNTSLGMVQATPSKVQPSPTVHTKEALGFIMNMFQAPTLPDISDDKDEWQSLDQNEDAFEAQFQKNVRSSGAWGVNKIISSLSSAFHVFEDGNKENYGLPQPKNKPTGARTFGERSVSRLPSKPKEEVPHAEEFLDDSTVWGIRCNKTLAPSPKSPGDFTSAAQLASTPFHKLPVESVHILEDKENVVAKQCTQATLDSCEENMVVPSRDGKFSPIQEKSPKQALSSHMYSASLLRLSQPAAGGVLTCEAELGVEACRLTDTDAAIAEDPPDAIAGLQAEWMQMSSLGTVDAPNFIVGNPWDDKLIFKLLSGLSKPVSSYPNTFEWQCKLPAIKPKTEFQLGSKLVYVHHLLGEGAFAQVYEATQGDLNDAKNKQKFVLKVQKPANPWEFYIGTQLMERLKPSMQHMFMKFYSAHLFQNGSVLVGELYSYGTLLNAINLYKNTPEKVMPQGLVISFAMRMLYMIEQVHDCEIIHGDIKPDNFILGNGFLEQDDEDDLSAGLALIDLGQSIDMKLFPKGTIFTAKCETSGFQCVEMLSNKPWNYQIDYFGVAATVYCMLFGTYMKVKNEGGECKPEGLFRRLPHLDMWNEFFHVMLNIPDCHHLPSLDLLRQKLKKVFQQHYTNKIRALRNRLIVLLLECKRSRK

As for `CC1(C)CC(=O)c2c([nH]c(-c3ccnc(Nc4cccc(F)c4)c3)c2Nc2cccc(F)c2)C1`, the IC50 amounted to 497 nM.

For the compound `CC1(C)CC(=O)c2c([nH]c(-c3ccnc(NS(C)(=O)=O)c3)c2Nc2ccccc2)C1`, the IC50 came to 733 nM.

On to `CC(=O)Nc1cc(-c2[nH]c3c(c2Nc2ccc(F)cc2)C(=O)CCC3)ccn1`, for which the IC50 came out at 58.9 nM.

In the case of `CS(=O)(=O)Nc1cc(-c2[nH]c3c(c2Nc2ccccc2)C(=O)CCC3)ccn1`, the IC50 was 6660 nM.

`Cc1cccc(Nc2c(-c3ccncc3)[nH]c3c2C(=O)CC(C)(C)C3)c1F`: the IC50 was found to be 85.5 nM.

As for `CC(C)Oc1cccc(Nc2c(-c3ccncc3)[nH]c3c2C(=O)CC(C)(C)C3)c1`, the IC50 was 1170 nM.

`CC1(C)CC(=O)c2c([nH]c(-c3ccnc(Cl)c3)c2Nc2ccccc2)C1`: the IC50 stood at 53.6 nM.

For the compound `CC1(C)CC(=O)c2c([nH]c(-c3ccnc(Br)c3)c2Nc2ccccc2)C1`, the IC50 worked out at 99.8 nM.
